Where a SMILES comes first, the peptide text is derived from it. [ ]: non-standard residue; d: D form. The star is where a group is joined. Tyr(Nα,Nα-allyl2) = C=CCN(CC=C)[C@@H](Cc1ccc(O)cc1)C(=O)*; Aib = CC(C)(N)C(=O)O
Key:
Mu-type opioid receptor [1] = target: Mu-type opioid receptor (Cavia porcellus, UniProt P97266); experiment: Tested for agonist activity against mu opioid receptor in guinea pig ileum; format: functional, tissue-based
Mu-type opioid receptor [2] = target: Mu-type opioid receptor (Rattus norvegicus, UniProt P33535); experiment: Evaluated for inhibition of [3H]DAMGO binding from mu receptor in rat brain membranes; format: cell membranes
Chain of Mu-type opioid receptor (Rattus norvegicus, UniProt P33535) (P33535 whole entry): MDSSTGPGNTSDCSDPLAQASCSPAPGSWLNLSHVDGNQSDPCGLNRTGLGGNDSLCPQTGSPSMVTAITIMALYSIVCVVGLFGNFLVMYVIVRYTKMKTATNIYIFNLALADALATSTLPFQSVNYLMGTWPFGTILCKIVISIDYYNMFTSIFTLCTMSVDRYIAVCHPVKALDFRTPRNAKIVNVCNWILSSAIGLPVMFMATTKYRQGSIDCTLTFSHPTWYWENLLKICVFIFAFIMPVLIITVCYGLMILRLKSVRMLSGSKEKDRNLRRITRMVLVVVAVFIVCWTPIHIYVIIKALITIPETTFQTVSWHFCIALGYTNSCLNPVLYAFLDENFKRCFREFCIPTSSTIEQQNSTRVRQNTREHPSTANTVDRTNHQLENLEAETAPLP

[3] = target: T1, Delta-type opioid receptor (Mus musculus, UniProt P32300); experiment: Tested for inhibition of binding of [3H]DADLE to mouse brain membranes depleted of mu binding sites by pretreatment with irreversible ligand BIT for delta opioid receptor; parameters: species or system Membrane
T1 sequence (P32300 whole entry): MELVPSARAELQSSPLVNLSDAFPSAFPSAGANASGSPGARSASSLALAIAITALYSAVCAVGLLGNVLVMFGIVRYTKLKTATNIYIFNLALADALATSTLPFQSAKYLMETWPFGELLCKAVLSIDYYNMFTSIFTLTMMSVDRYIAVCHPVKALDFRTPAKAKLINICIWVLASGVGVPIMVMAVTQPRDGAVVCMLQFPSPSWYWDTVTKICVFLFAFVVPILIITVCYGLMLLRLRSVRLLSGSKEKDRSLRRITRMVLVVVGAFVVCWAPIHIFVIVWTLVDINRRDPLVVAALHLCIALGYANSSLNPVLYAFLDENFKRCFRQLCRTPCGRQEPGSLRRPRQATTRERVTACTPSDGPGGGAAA

[4] = target: T1, Delta-type opioid receptor; experiment: Tested for agonist activity against delta opioid receptor mouse vas deferens; format: functional, tissue-based

Chain of Mu-type opioid receptor (Cavia porcellus, UniProt P97266) (P97266 whole entry): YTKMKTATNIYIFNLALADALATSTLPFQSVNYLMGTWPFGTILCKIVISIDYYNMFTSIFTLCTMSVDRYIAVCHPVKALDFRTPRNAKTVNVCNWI

Row | Compound | IC50 (Mu-type opioid receptor [1]) | IC50 (Mu-type opioid receptor [2]) | IC50 [3] | also measured
1 | C=CCN1C[C@H](C)N([C@@H](c2ccc(C(=O)N(CC)CC)cc2)c2cccc(OC)c2)C[C@H]1C | 5460 nM | 2470 nM |  | 
2 | C=CCN1C[C@@H](C)N([C@H](c2ccc(C(=O)N(CC)CC)cc2)c2cccc(O)c2)C[C@@H]1C |  |  | 9.58 nM | 
3 | C=CCN1C[C@@H](C)N([C@@H](c2ccc(C(=O)N(CC)CC)cc2)c2cccc(O)c2)C[C@@H]1C |  |  | 0.49 nM | 
4 | C=CCN1CC(C)N(C(c2ccc(C(=O)N(CC)CC)cc2)c2cccc(O)c2)CC1C (racemic) | 143 nM |  | 0.92 nM | IC50 [4]: 0.2 nM
5 | C=CCN1C[C@@H](C)N(C(c2ccc(C(=O)N(CC)CC)cc2)c2cccc(OC)c2)C[C@@H]1C (single isomer, unassigned) | 1520 nM | 9140 nM |  | 
6 | C=CCN1CC(C)N([C@H](c2ccc(C(=O)N(CC)CC)cc2)c2cccc(OC)c2)CC1C (single isomer, unassigned) [SNC-80] |  | 9370 nM |  | 
7 | C=CCN1C[C@H](C)N(C(c2ccc(C(=O)N(CC)CC)cc2)c2cccc(O)c2)C[C@H]1C (single isomer, unassigned; (+)-1) |  |  | 0.31 nM | 
8 | C=CCN1C[C@H](C)N(C(c2ccc(C(=O)N(CC)CC)cc2)c2cccc(O)c2)C[C@H]1C (single isomer, unassigned; (+)-10) |  |  | 5.96 nM | 
9 | C=CCN(CC=C)[C@@H](Cc1ccc(O)cc1)C(=O)NC(C)(C)C(=O)NC(C)(C)C(=O)N[C@@H](Cc1ccccc1)C(=O)N[C@@H](CC(C)C)C(=O)O.C=CCN1C[C@H](C)N([C@@H](c2ccc(C(=O)N(CC)CC)cc2)c2cccc(OC)c2)C[C@H]1C ({Tyr(Nα,Nα-allyl2)}-[Aib][Aib]FL-OH) |  |  |  | IC50 [4]: 3250 nM
10 | CC(C)[C@H](NC(=O)[C@H](CCC(=O)O)NC(=O)[C@H](Cc1ccccc1)NC(=O)[C@@H](C)NC(=O)[C@@H](N)Cc1ccc(O)cc1)C(=O)N[C@H](C(=O)NCC(=O)O)C(C)C [DELTORPHIN] | 15000 nM |  |  | 
11 | C=CCN1C[C@H](C)N([C@H](c2ccc(C(=O)N(CC)CC)cc2)c2cccc(OC)c2)C[C@H]1C [SNC-80] |  | 5710 nM |  | 

From ChEMBL document CHEMBL1127803 (J Med Chem, 1994)
